Experimental data: patent US5538975A, “1,3-oxathiolane nucleoside compounds and compositions” (BioChem Pharma, Inc., priority 1991, dated 1996)
Values after ≈ are worked out from the molar mass of the structure shown. Like-named read-outs stand apart in the source and are kept apart here.

How the values were obtained:
HIV-1 strain RF [1] = test: microbe, parasite or virus in culture; conditions: Human immunodeficiency virus 1, MT4, in Homo sapiens, read-out: 50% Antiviral Activity, Formazan
Method: Antiviral activity of the compound of Example 1 was determined against HIV-1 in the following cell lines.
MT-4 cells, a human T-cell leukaemia cell line, infected with HIV-1 strain RF.
Antiviral activity in C8166 cells was determined by inhibition of syncytium formation (Tochikura et al Virology, 164, 542-546) and in MT-4 cells by inhibition of formazan conversion [Baba et al, Biochem Biophys Res Commun., 142, pp. 128-134 (1987); Mossman, J. Immun. Meth., 65, pp. 55-57 (1983)]. Antiviral activities were also determined by analyzing the amount of HIV p24 antigen synthesized in the presence and absence of enantiomers.

in vitro = conditions: human
Method: The cytotoxicities of the compounds of Example 1 and the racemic compound (Intermediate 1) were determined in two CD4 cell lines: H9 and CEM.
Compounds for test were serially diluted from 100 μg/ml to 0.3 μg/ml (final concentrations) in 96 well microtitre plates. 3.6×10^4 cells were inoculated into each well of the plates including drug-free controls. After incubation at 37° C. for 5 days, the viable cell count was determined by removing a sample of cell suspension and counting trypan blue excluding cells in a hemocytometer.

HIV-1 strain RF [2] = test: Antiviral activity, inhibition of syncytium formation in C8166 cells; assay type: cell-based, HIV-1; C8166 human T-lymphoblastoid cell line
[3] = system: HIV p24 antigen (HIV-1 RF); test: Inhibition of HIV p24 antigen synthesis in C8166 cells; assay type: cell-based, HIV-1; C8166 human T-lymphoblastoid cell line
CD4 cell lines = test: Cytotoxicity of the enantiomers (general statement); assay type: cell-based; conditions: in words

| SMILES | IC50 (HIV-1 strain RF [1]) | CC50 at 120 h (in vitro; cem cells) | CC50 at 120 h (in vitro; h9 cells) | IC50 (HIV-1 strain RF [2]; Human immunodeficiency virus 1, C8166 cells, HIV-1 RF, read-out: 50% Antiviral Activity, Inhibition of syncytium formation) | IC50 ([3]; Human immunodeficiency virus 1, C8166 cells, virus RF, read-out: 50% Inhibition HIV p24 Synthesis) | cytotoxicity (CD4 cell lines) | activity relative to the (+)-enantiomer (HIV) | IC50 (HIV-1 strain RF [2]; Human immunodeficiency virus 1, C8166, read-out: 50% Antiviral Activity, Inhibition of syncytium formation) | IC50 ([3]; Human immunodeficiency virus 1, C8166, read-out: 50% Inhibition HIV p24 Synthesis) |
| --- | --- | --- | --- | --- | --- | --- | --- | --- | --- |
| Nc1nc(=O)n([C@@H]2CS[C@H](CO)O2)cc1F (relative stereo) [Intermediate 1, (±)-Cis-2-hydroxymethyl-5-(5'-fluorocytosin-1'-yl)1,3-oxathiolane] | 0.065 µg/mL (≈ 0.263 µM) | 173 µg/mL (≈ 700 µM) | 232 µg/mL (≈ 938 µM) |  |  |  |  |  |  |
| Nc1nc(=O)n([C@H]2CS[C@@H](CO)O2)cc1F [(+)-enantiomer, (+)-cis-2-hydroxymethyl-5-(5'-fluorocytosin-1'-yl) -1,3-oxathiolane] | > 1 µg/mL | 217 µg/mL (≈ 878 µM) | 334 µg/mL (≈ 1350 µM) | 0.04 µg/mL (≈ 0.162 µM) | 0.1 µg/mL (≈ 0.404 µM) | unexpectedly low cytotoxicity |  |  |  |
| Nc1nc(=O)n([C@@H]2CS[C@H](CO)O2)cc1F [(-)-enantiomer, (-)-4-amino-5-fluoro-1-(2-hydroxymethyl-1,3-oxathiolan-5-yl)-(1H)-pyrimidin-2-one] | 0.14 µg/mL (≈ 0.566 µM) | 148 µg/mL (≈ 599 µM) | 296 µg/mL (≈ 1200 µM) |  |  | unexpectedly low cytotoxicity | much more active than the (+)-enantiomer |  |  |
| Cc1cn([C@H]2C[C@H](N=[N+]=[N-])[C@@H](CO)O2)c(=O)[nH]c1=O [AZT, 3'-azido-3'-deoxythymidine, reference compound] |  |  |  |  |  |  |  | 0.0038 µg/mL (≈ 0.0142 µM) | 0.017 µg/mL (≈ 0.0636 µM) |
